Measurements from patent publication US8304206B2, “Mass spectrometry assays for identifying compounds that activate deacetylases” (Sirtris Pharmaceuticals, Inc., priority 2005, dated 2012).

What was measured:
SIRT1 [1] = molecular target: T1, SIRT1 (Homo sapiens, UniProt Q96EB6); experiment: DMSO tolerance of SIRT1 mass spectrometry assay; assay type: biochemical
T1 sequence (Q96EB6 1-747): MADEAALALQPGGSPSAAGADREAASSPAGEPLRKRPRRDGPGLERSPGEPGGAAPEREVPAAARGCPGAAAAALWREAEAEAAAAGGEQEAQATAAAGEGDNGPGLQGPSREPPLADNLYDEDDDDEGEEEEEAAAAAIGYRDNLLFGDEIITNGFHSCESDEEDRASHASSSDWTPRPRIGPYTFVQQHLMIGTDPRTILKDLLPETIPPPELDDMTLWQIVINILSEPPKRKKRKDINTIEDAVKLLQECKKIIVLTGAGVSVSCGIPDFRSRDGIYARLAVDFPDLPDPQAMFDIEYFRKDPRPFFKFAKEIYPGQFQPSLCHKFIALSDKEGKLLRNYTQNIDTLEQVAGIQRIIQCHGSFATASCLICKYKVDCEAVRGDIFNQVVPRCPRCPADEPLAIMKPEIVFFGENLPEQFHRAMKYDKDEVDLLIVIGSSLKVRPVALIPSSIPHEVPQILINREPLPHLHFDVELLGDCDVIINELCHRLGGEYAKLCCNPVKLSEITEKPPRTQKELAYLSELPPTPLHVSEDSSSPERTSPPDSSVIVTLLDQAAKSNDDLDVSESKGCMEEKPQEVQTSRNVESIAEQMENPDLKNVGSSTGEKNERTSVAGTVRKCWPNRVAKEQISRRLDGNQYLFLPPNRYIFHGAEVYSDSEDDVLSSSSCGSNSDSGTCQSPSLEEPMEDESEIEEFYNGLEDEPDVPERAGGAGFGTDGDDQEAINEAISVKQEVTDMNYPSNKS
Description: To determine the tolerance of the SIRT1 mass spectrometry assay for DMSO, a rate based experiment was performed at multiple concentrations of DMSO.
Formic acid (10 μL of 10%) was added to all of the wells in column 1 of the 96 well assay plate. Eight concentrations of DMSO (40%, 20%, 10%, 5.0%, 2.5%, 1.25%, 0.625%, and 0.313%) were prepared in buffer containing 50 mM Tris HCl pH 8.0, 137 mM, NaCl, 2.7 mM, KCl, 1 mM MgCl2, 5 mM DTT, and 0.05% BSA.
This DMSO titration was prepared by making a 2000 μL solution of 40% DMSO in 50 mM Tris HCl pH 8.0, 137 mM, NaCl, 2.7 mM, KCl, 1 mM MgCl2, 5 mM DTT, and 0.05%. BSA in well A1 of a Costar 2 mL 96 well Assay Block. Dilution Working Solution (1000 μL; 50 mM Tris HCl pH 8.0, 137 mM, NaCl, 2.7 mM, KCl, 1 mM MgCl2, 5 mM DTT, and 0.05% BSA) was added to wells B1, C1, D1, E1, F1, G1 and H1. 1000 μL of the 40% DMSO in buffer solution was transferred from A1 to […] and the solution was mixed 5 times. This process was repeated with wells in column 1 until well H1 was reached.
Using an 8 channel multi-pipette, 50 μl was transferred from column 1 of the 2 mL 96 well assay block to all columns of a 96 well assay plate.
25 μL of Enzyme Working Solution (40 nM SIRT1, 50 mM Tris HCl pH 8.0, 137 mM, NaCl, 2.7 mM, KCl, 1 mM MgCl2, 5 mM DTT, and 0.05% BSA) was prepared and added to each well of the 96-well round bottom assay plate. […]
At 0, 2, 5, 10, 15, 20, 25, 25, 30, 35, 40, 45, and 60 minutes, the reaction was stopped with 10% formic acid and the conversion of substrate to product was determined by mass spectrometry. The activity of SIRT1 at each concentration of DMSO was monitored by comparing the percent conversion of Acetylated Peptide Substrate to Deacetylated Peptide Product over time. […]
Product formation versus time was plotted for each concentration of DMSO tested. The rate was determined by taking the slope from the linear part of the time course. […]

SIRT1 [2] = molecular target: T1, SIRT1; experiment: SIRT1 mass spectrometry assay (screening for activation); assay type: biochemical; details: for FOLD ACTIVATION MS: activation of SIRT1, mass spectrometry; for EC50: activation of SIRT1, 0.5 μM peptide substrate (SEQ ID NO: 34), 120 μM NAD+, 10 nM SIRT1, 25 min, read-out: ED50 MS ASSAY

FOLD ACTIVATION MS (SIRT1 [2])	EC50 (SIRT1 [2]) [µM]	Compound	also measured
–	–	C[S+](C)[O-] [DMSO]	decrease of SIRT1 enzyme activity (SIRT1 [1]; 0.625% DMSO): 9.1%; decrease of SIRT1 enzyme activity (SIRT1 [1]; 1.25% DMSO): 21%; decrease of SIRT1 enzyme activity (SIRT1 [1]; 2.5% DMSO): 36%
B (Fold Activation<250%)	–	COc1cc(C(=O)Nc2ccccc2-c2cn3c(CN4CCOCC4)csc3n2)cc(OC)c1OC [compound 210]	–
B (Fold Activation<250%)	< 50	COc1ccc(C(=O)Nc2cccc(-c3nc4ccccc4[nH]3)c2)c(OC)c1 [compound 211]	–
B (Fold Activation<250%)	–	COc1cccc(C(=O)Nc2cccc(-c3nc4cccnc4s3)c2)c1 [compound 212]	–
B (Fold Activation<250%)	< 50	COc1ccc(C(=O)Nc2cccc(-c3nc4cccnc4s3)c2)c(OC)c1 [compound 213]	–
B (Fold Activation<250%)	–	COc1cccc(C(=O)Nc2cccc(-c3nc4cccnc4s3)c2)c1OC [compound 214]	–
B (Fold Activation<250%)	< 50	COc1cc(OC)cc(C(=O)Nc2cccc(-c3nc4cccnc4s3)c2)c1 [compound 215]	–
B (Fold Activation<250%)	< 50	COc1ccc(C(=O)Nc2cccc(-c3nc4cccnc4s3)c2)cc1 [compound 216]	–
A (Fold activation>250%)	< 50	COc1cc(C(=O)Nc2cccc(-c3nc4cccnc4s3)c2)cc(OC)c1OC [compound 217]	–
A (Fold activation>250%)	< 50	COc1cc(C(=O)Nc2cccc(-c3cn4cccnc4n3)c2)cc(OC)c1OC [compound 218]	–
A (Fold activation>250%)	–	COc1cc(C(=O)Nc2cccc(-c3nc4ncccn4c3C)c2)cc(OC)c1OC [compound 219]	–
B (Fold Activation<250%)	–	O=C(Nc1cccc(-c2nc3ccncc3s2)c1)c1ccco1 [compound 221]	–
B (Fold Activation<250%)	–	O=C(Nc1cccc(-c2nc3ccncc3s2)c1)c1cccnc1Cl [compound 222]	–
B (Fold Activation<250%)	< 50	O=C(Nc1cccc(-c2nc3ccncc3s2)c1)c1cccs1 [compound 223]	–
A (Fold activation>250%)	–	Cc1cc(C(=O)Nc2cccc(-c3nc4ccncc4s3)c2)n(C(C)(C)C)n1 [compound 228]	–
B (Fold Activation<250%)	< 50	O=C(Nc1cccc(-c2nc3ccncc3s2)c1)c1cnn(-c2ccccc2)c1C(F)(F)F [compound 238]	–
B (Fold Activation<250%)	< 50	O=S(=O)(Nc1cccc(-c2nc3ccncc3s2)c1)c1ccc(OC(F)(F)F)cc1 [compound 239]	–
B (Fold Activation<250%)	< 50	O=C(Nc1cccc(-c2nc3ccncc3s2)c1)c1ccc(-c2ccccc2)o1 [compound 241]	–
B (Fold Activation<250%)	< 50	O=C(Nc1cccc(-c2nc3ccncc3s2)c1)c1ccccc1Oc1ccccc1 [compound 245]	–
B (Fold Activation<250%)	< 50	Cn1nc(C(C)(C)C)cc1C(=O)Nc1cccc(-c2nc3ccncc3s2)c1 [compound 246]	–
B (Fold Activation<250%)	–	O=C(Nc1cccc(-c2nc3ccncc3s2)c1)c1cc(C(F)(F)F)ccc1C(F)(F)F [compound 248]	–

FOLD ACTIVATION MS (SIRT1 [2])	EC50 (SIRT1 [2]) [µM]	Compound	also measured
B (Fold Activation<250%)	< 50	COc1ccc(C(=O)Nc2ccccc2-c2cc3ccccc3[nH]2)cc1OC [compound 254]	–
B (Fold Activation<250%)	< 50	COc1cc(C(=O)Nc2ccccc2-c2cc3ccccc3[nH]2)cc(OC)c1OC [compound 255]	–
B (Fold Activation<250%)	–	COC(=O)c1ccc(-n2cncn2)c(NC(=O)c2ccc(OC)c(OC)c2)c1 [compound 258]	–
A (Fold activation>250%)	< 50	COc1cc(C(=O)Nc2cccc(-c3nc4ccccc4[nH]3)n2)cc(OC)c1OC [compound 259]	–
A (Fold activation>250%)	< 50	COc1ccc(C(=O)Nc2cccc(-c3nc4ccccc4[nH]3)n2)cc1OC [compound 260]	–
A (Fold activation>250%)	< 50	COc1cccc(C(=O)Nc2cccc(-c3nc4ccccc4[nH]3)n2)c1 [compound 261]	–
B (Fold Activation<250%)	< 50	COc1ccc(C(=O)Nc2ccc(-c3nc4ccccc4[nH]3)cc2)c(OC)c1 [compound 262]	–
B (Fold Activation<250%)	–	COc1cc(C(=O)Nc2ccc(-c3nc4ccccc4[nH]3)cc2)cc(OC)c1OC [compound 263]	–
B (Fold Activation<250%)	< 50	CN(C)c1cccc(C(=O)Nc2ccc(-c3cc4ccccc4[nH]3)cc2)c1 [compound 264]	–
B (Fold Activation<250%)	–	COc1ccc(C(=O)Nc2ccccc2-c2cn3ccccc3n2)c(OC)c1 [compound 265]	–
A (Fold activation>250%)	< 50	COc1ccc(C(=O)Nc2ccccc2-c2cn3ccccc3n2)cc1OC [compound 266]	–
B (Fold Activation<250%)	< 50	COc1cc(C(=O)Nc2ccccc2-c2cn3ccccc3n2)cc(OC)c1OC [compound 267]	–
B (Fold Activation<250%)	< 50	CN(C)c1cccc(C(=O)Nc2ccccc2-c2cn3ccccc3n2)c1 [compound 268]	–
A (Fold activation>250%)	–	COc1ccc(C(=O)Nc2ccccc2-c2cn3cc(CN4CCNCC4)sc3n2)cc1OC [compound 270]	–
A (Fold activation>250%)	< 50	COc1cc(C(=O)Nc2ccccc2-c2cn3cc(CN4CCNCC4)sc3n2)cc(OC)c1OC [compound 271]	–
B (Fold Activation<250%)	< 50	COc1ccc(C(=O)Nc2cccc(-c3nc4cnccc4s3)c2)c(OC)c1 [compound 272]	–
A (Fold activation>250%)	–	COc1cc(C(=O)Nc2cccc(-c3nc4cnccc4s3)c2)cc(OC)c1OC [compound 273]	–
B (Fold Activation<250%)	< 50	COc1ccc(C(=O)Nc2ncccc2-c2nc3ccccc3[nH]2)cc1OC [compound 276]	–
B (Fold Activation<250%)	–	CC(=O)Nc1ccc(S(=O)(=O)Nc2cccc(-c3nc4ccncc4s3)c2)cc1 [compound 288]	–
B (Fold Activation<250%)	–	COc1ccc(S(=O)(=O)Nc2cccc(-c3nc4ccncc4s3)c2)cc1OC [compound 289]	–
